In patent US8853424B2 (Japan Science and Technology Agency, priority 2008, dated 2014):
Read-outs that look alike come from different tables or passages of the source.

Tests used:
[1] = system: Truncated N-terminal huntington 150 Q-EGFP-Neuron 2a cells; assay: Measurement of x-Fold (polyglutamine aggregation inhibitory activity); assay type: cell-based
Experimental: In the present invention, the polyglutamine aggregation inhibitory activity (x-Fold) can be measured, for example, by the method described in the Example.
The number of the aggregated cells, and the total number of cells were counted by Array Scan V T1 (manufactured by Cellomics, Pittuburg, USA), and the ratio of the aggregated cells to the total number of cells was determined (x-Fold). […]

[2] = system: transglutaminase (TGase); assay: Measurement of TG (TGase inhibitory activity, monodansyl cadaverine / N,N-dimethylcasein fluorescence, FDSS 3000); assay type: biochemical
Method in brief: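 Compound (1 μL of 10 mM stock) added to 0.1 mL reaction: 100 mM HEPES-NaOH pH 7.5, 1 mM CaCl2, 20 μM monodansyl cadaverine, 0.05 mg/mL N,N-dimethylcasein, 5 μg/mL TGase. Rate of fluorescence change at 340 nm measured; DMSO control set to 100; TG50 is the concentration halving activity.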

[3] = system: SOC (store operated calcium channel); assay: Measurement of SOC IC50 (thapsigargin store depletion, calcium re-addition, CHO cells); assay type: cell-based; details: read-out: SOC IC50
Experimental: The SOC (store operated calcium channel)-suppressive action can be measured by the method described in the Example and using, for example, FDSS 3000.
CHO cell culture medium was replaced with a BSS solution which is an extracellular fluidfree of calcium, the compound of the present invention was added 1 min later, and 1 μM thapsigargin was allowed to act thereon 2 min later to deplete intracellular calcium store. […]

[4] = polyglutamine aggregation, Truncated N-terminal huntington 150 Q-EGFP-Neuron 2a cells
[5] = ratio of aggregated cells to total number of cells, compound 20 μM, 20 hr, almost 1 without compound, smaller = stronger inhibition
[6] = TGase activity with compound (10 mM, 1 μL in 0.1 ml enzyme reaction solution), DMSO control taken as 100
[7] = TGase inhibitory activity measurement, unit not given
[8] = CHO cells, 1 μM thapsigargin, 2 mM calcium chloride
[9] = Cricetulus griseus, CHO, CHO cells, 1 μM thapsigargin, 2 mM calcium chloride
[10] = polyglutamine aggregation inhibitory activity, Table 1
[11] = TGase inhibitory activity value, Table 1
[12] = Cricetulus griseus, CHO, Table 1
[13] = Cricetulus griseus, CHO, CHO cells, thapsigargin store depletion

Row | Compound | TGase activity remaining (% of DMSO control = 100) [2, 6] | IC50 [3, 9] [µM] | TGase activity remaining (% of DMSO control = 100) [2, 11] | IC50 [3, 12] [µM] | x-Fold [1, 5] | x-Fold [1, 10] | other results
1 | Cc1ccc(B(OCC2CCCCN2)c2ccc(C)c(Cl)c2)cc1Cl (stereo not shown) [Example 247, di(3-chloro-4-methylphenyl) 2-piperidinomethylborinate] | 99 | 0.7 | – | – | 0.91 | – | –
2 | Cc1ccc(B(O)c2ccc(COCc3ccc(B(O)c4ccc(C)cc4)cc3)cc2)cc1 [Example 361, bis(4-(4-methylphenylhydroxyboryl)benzyl)ether] | 100 | > 20 | 100 | > 20 | 0.88 | 0.88 | –
3 | CCCCNCCOB(c1ccccc1)c1cccc(COCc2cccc(B(OCCNCCCC)c3ccccc3)c2)c1 [Example 473, bis(3,3′-(phenyl-N-butylaminoethoxyboryl)benzyl)ether] | – | – | – | – | 0.96 | – | x-Fold [1, 4]: 0.96; TGase activity remaining (% of DMSO control = 100) [2, 7]: −4; IC50 [3, 8]: 0.5 µM
4 | Cc1ccc(B(OC(=O)C(N)CN)c2ccc(C)c(Cl)c2)cc1Cl (stereo not shown) [Example 71, di(3-chloro-4-methylphenyl)(2,3-diaminopropionate-O,N)borane] | 51 | 1 | 51 | 1 | 0.97 | 0.97 | –
5 | OB(c1ccc(COc2ccc(B(O)c3ccc(C(F)(F)F)cc3)cc2)cc1)c1ccc(C(F)(F)F)cc1 [Example 372, (4-trifluoromethylphenylhydroxyborylphenyl)(4′-trifluoromethylphenylhydroxyborylbenzyl)ether] | – | 1 | – | 1 | 0.86 | 0.86 | –
6 | NCCOB(c1ccccc1)c1ccc(COc2ccc(B(OCCN)c3ccccc3)cc2)cc1 [Example 371, (4-phenylaminoethoxyborylphenyl)(4′-phenylaminoethoxyborylbenzyl)ether] | 16 | 2 | 16 | 2 | 0.85 | 0.85 | –
7 | Cc1ccc(B(OCCN(C)C)c2ccc(COCc3ccc(B(OCCN(C)C)c4ccc(C)c(Cl)c4)cc3)cc2)cc1Cl [Example 422, bis(4,4′-(3-chloro-4-methylphenyl-N,N-dimethylaminoethoxyboryl)benzyl)ether] | 13 | – | – | – | 0.95 | 0.91 | x-Fold [1, 4]: 0.95; TGase activity remaining (% of DMSO control = 100) [2, 7]: 13; IC50 [3, 8]: 1.2 µM; IC50 ([3]; Table 1): 0.7 µM
8 | OB(c1ccccc1)c1ccc(COc2ccc(B(O)c3ccccc3)cc2)cc1 [Example 370, (4-phenylhydroxyborylphenyl)(4′-phenylhydroxyborylbenzyl)ether] | – | 2 | – | 2 | 0.76 | 0.76 | –
9 | CN(C)CCOB(c1ccccc1)c1cccc(COCc2cccc(B(OCCN(C)C)c3ccccc3)c2)c1 [Example 403, bis(3,3′-(phenyl-N,N-dimethylaminoethoxyboryl)benzyl)ether] | – | 2 | – | – | 1.14 | – | x-Fold ([1]; polyglutamine aggregation, Truncated N-terminal huntington 150 Q-EGFP-Neuron 2a cells, listed as 2022): 1.14; IC50 [3, 13]: 2 µM
10 | bis(3-chloro-4-methylphenyl hydroxyborylbenzyl)ether [Example 125] | 113 | – | 113 | – | – | – | IC50 [3, 8]: 10 µM
11 | OB(c1ccccc1)c1ccc(COCc2cccc(B(O)c3ccccc3)c2)cc1 [Example 329, (3-(phenylhydroxyboryl)benzyl)(4-(phenylhydroxyboryl)benzyl)ether] | 81 | 0.2 | 81 | 0.2 | – | – | –
12 | NCCSB(c1ccccc1)c1cccc(COCc2cccc(B(SCCN)c3ccccc3)c2)c1 [Example 405, bis(3,3′-(phenyl-aminoethylthioboryl)benzyl)ether] | – | 0.5 | – | – | 0.86 | – | x-Fold [1, 4]: 0.86; IC50 [3, 13]: 0.5 µM
13 | Cc1ccc(B(OCc2ccccn2)c2ccc(C)c(Cl)c2)cc1Cl [Example 215] | – | 2 | – | 2 | 1.03 | 1.03 | –
14 | NCCOB(c1ccc(COc2ccc(B(OCCN)c3ccc(C(F)(F)F)cc3)cc2)cc1)c1ccc(C(F)(F)F)cc1 [Example 373, (4-trifluoromethylphenylaminoethoxyborylphenyl)(4′-trifluoromethylphenylaminoethoxyborylbenzyl)ether] | – | 2 | – | 2 | 0.84 | 0.84 | –
15 | CC1[NH2+][B-](c2ccccc2)(c2ccccc2)OC1=O (stereo not shown) [Example 258, diphenyl(alaninate-O,N)borane] | 110 | 5 | 110 | 5 | – | – | –
16 | CNCCOB(c1ccccc1)c1ccc(Oc2ccc(B(OCCNC)c3ccc(COCOC)cc3)cc2)cc1 [Example 168, (4-(phenyl-N-methylaminoethoxyboryl)phenyl)-(4′-(methoxymethoxymethylphenyl-N-methylaminoethoxyboryl)phenyl)ether] | 35 | – | 35 | – | 0.72 | 0.72 | –
17 | NCCOB(c1ccccc1)c1ccc(COCc2ccc(B(OCCN)c3ccc(COCc4ccc(B(OCCN)c5ccccc5)cc4)cc3)cc2)cc1 [Example 189, bis((4,4′-phenylaminoethoxyboryl)benzyloxybenzyl)aminoethoxyborane] | 119 | – | 119 | – | 0.94 | 0.94 | –
18 | FC(F)(F)c1ccc(C(OB(c2ccccc2)c2ccc(COCc3ccc(B(OC(c4ccc(C(F)(F)F)cc4)c4ccccn4)c4ccccc4)cc3)cc2)c2ccccn2)cc1 (stereo not shown) [Example 138, bis(2-pyridyl-4-trifluoromethylphenylmethoxyphenylboryl 4-benzyl)ether] | 96 | – | – | – | 0.99 | – | –
19 | NCCC(N)C(=O)OB(c1ccc(Cl)c(F)c1)c1ccc(Cl)c(F)c1 (stereo not shown) [Example 95, di(3-fluoro-4-chlorophenyl)(2,4-diaminolactonate-O,N)borane] | 114 | – | 114 | – | 0.88 | 0.88 | –

Continued, in another order:

Row | TGase activity remaining (% of DMSO control = 100) [2, 6] | IC50 [3, 9] [µM] | TGase activity remaining (% of DMSO control = 100) [2, 11] | IC50 [3, 12] [µM] | Compound | x-Fold [1, 5] | x-Fold [1, 10] | other results
20 | 6 | – | – | – | NCCSB(c1ccccc1)c1ccc(COCc2ccc(B(SCCN)c3ccccc3)cc2)cc1 [Example 451, bis(4,4′-(phenyl-aminoethylthioboryl)benzyl)ether] | 0.91 | – | x-Fold [1, 4]: 0.91; TGase activity remaining (% of DMSO control = 100) [2, 7]: 6; IC50 [3, 8]: 1.4 µM
21 | 31 | – | – | – | NC(COB(c1ccccc1)c1cccc(COCc2cccc(B(OCC(N)c3ccccc3)c3ccccc3)c2)c1)c1ccccc1 (stereo not shown) [Example 462, bis(3,3′-(phenyl-2-phenyl-2-aminoethoxyboryl)benzyl)ether] | 0.92 | – | x-Fold [1, 4]: 0.92; TGase activity remaining (% of DMSO control = 100) [2, 7]: 31; IC50 [3, 8]: 0.3 µM
22 | 18 | – | – | – | CC(CN)OB(c1ccccc1)c1cccc(COCc2cccc(B(OC(C)CN)c3ccccc3)c2)c1 (stereo not shown) [Example 465, bis(3,3′-(phenyl-1-methyl-2-aminoethoxyboryl)benzyl)ether] | 1.06 | – | x-Fold [1, 4]: 1.06; TGase activity remaining (% of DMSO control = 100) [2, 7]: 18; IC50 [3, 8]: 0.2 µM
23 | 23 | – | – | – | c1ccc(NCCOB(c2ccccc2)c2ccc(COCc3ccc(B(OCCNc4ccccc4)c4ccccc4)cc3)cc2)cc1 [Example 455, bis(4,4′-(phenyl-phenylaminoethoxyboryl)benzyl)ether] | 1.04 | – | x-Fold [1, 4]: 1.04; TGase activity remaining (% of DMSO control = 100) [2, 7]: 23; IC50 [3, 8]: 0.5 µM
24 | 52 | – | – | – | NC(=O)CCC(N)C(=O)OB(c1ccccc1)c1cccc(COCc2cccc(B(OC(=O)C(N)CCC(N)=O)c3ccccc3)c2)c1 (stereo not shown) [Example 471, bis(3,3′-(phenyl-glutamineboryl)benzyl)ether] | 1.04 | – | x-Fold [1, 4]: 1.04; TGase activity remaining (% of DMSO control = 100) [2, 7]: 52; IC50 [3, 8]: 0.6 µM
25 | – | – | – | 0.3 | Cc1ccc(B(OC(=O)C(N)CC(N)=O)c2ccc(C)c(Cl)c2)cc1Cl (stereo not shown) [compound 4103] | – | – | –
26 | – | – | – | 0.3 | NC(CCC(=O)O)C(=O)OB(c1ccccc1)c1ccc(Oc2ccc(B(OC(=O)C(N)CCC(=O)O)c3ccc(CO)cc3)cc2)cc1 (stereo not shown) [compound 1036] | – | – | –
27 | – | – | – | > 20 | OB(c1ccccc1)c1cccc(B(O)c2ccccc2)c1 [compound 554] | – | – | –
